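Compound exposure: 48 hours, 5 concentrations, 96-well plates. GI50 is the concentration that inhibits growth by half.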 Activity calls are given as the source filed them. No stated cut-off is given here; in the data, active = GI50 up to about 1.1 µM and inactive = higher.
What was measured:
Test in all cases: growth of human tumour cells (NCI), 48 h
786-0 = system: 786-0
A549 = system: A549
ACHN = system: ACHN
CAKI-1 = system: CAKI-1
CCRF-CEM = system: CCRF-CEM
COLO 205 = system: COLO 205
DLD-1 = system: DLD-1
DMS-114 = system: DMS-114
DMS-273 = system: DMS-273
EKVX = system: EKVX
HCC 2998 = system: HCC 2998
HCT-116 = system: HCT-116
HCT-15 = system: HCT-15
HL-60 = system: HL-60
HOP-62 = system: HOP-62
HOP-92 = system: HOP-92
HT-29 = system: HT-29
IGROV-1 = system: IGROV-1
K562 = system: K562
KM-20L2 = system: KM-20L2
KM12 = system: KM12
LOX IMVI = system: LOX IMVI
LXFL 529 = system: LXFL 529
M14 = system: M14
M19-MEL = system: M19-MEL
MOLT-4 = system: MOLT-4
Malme-3M = system: Malme-3M
NCI-H226 = system: NCI-H226
NCI-H23 = system: NCI-H23
NCI-H460 = system: NCI-H460
NCI-H522 = system: NCI-H522
OVCAR-3 = system: OVCAR-3
OVCAR-4 = system: OVCAR-4
OVCAR-5 = system: OVCAR-5
OVCAR-8 = system: OVCAR-8
RPMI-8226 = system: RPMI-8226
RXF 393 = system: RXF 393
RXF 631 = system: RXF 631
SF-268 = system: SF-268
SF-295 = system: SF-295
SF-539 = system: SF-539
SK-MEL-28 = system: SK-MEL-28
SK-MEL-2 = system: SK-MEL-2
SK-MEL-5 = system: SK-MEL-5
SK-OV-3 = system: SK-OV-3
SN12C = system: SN12C
SNB-19 = system: SNB-19
SNB-75 = system: SNB-75
SR = system: SR
SW-620 = system: SW-620
TK-10 = system: TK-10
U-251 = system: U-251
UACC-62 = system: UACC-62
UO-31 = system: UO-31
XF498 = system: XF498
A498 = system: A498
SNB-78 = system: SNB-78
UACC-257 = system: UACC-257

For `CCCC(=O)c1ccc(=O)n(C)c1`, the GI50 (786-0) was > 100 µM (inactive), the GI50 (A549) was > 100 µM (inactive) and the GI50 (ACHN) was > 100 µM (inactive). The GI50 (CAKI-1) was > 100 µM (inactive), the GI50 (CCRF-CEM) was > 100 µM (inactive) and the GI50 (COLO 205) was > 100 µM (inactive). For the same compound, the GI50 (DLD-1) was > 100 µM (inactive), the GI50 (DMS-114) was > 100 µM (inactive) and the GI50 (DMS-273) was > 100 µM (inactive). For the same compound, the GI50 (EKVX) was > 100 µM (inactive), the GI50 (HCC 2998) was > 100 µM (inactive) and the GI50 (HCT-116) was > 100 µM (inactive). The GI50 (HCT-15) was greater than 100 µM, the GI50 (HL-60) was > 100 µM (inactive) and the GI50 (HOP-62) was > 100 µM (inactive). The GI50 (HOP-92) was > 100 µM (inactive), the GI50 (HT-29) was > 100 µM (inactive) and the GI50 (IGROV-1) was > 100 µM (inactive). The GI50 (K562) was > 100 µM (inactive), the GI50 (KM-20L2) was > 100 µM (inactive) and the GI50 (KM12) was > 100 µM (inactive). For the same compound, the GI50 (LOX IMVI) was > 100 µM (inactive), the GI50 (LXFL 529) was > 100 µM (inactive) and the GI50 (M14) was > 100 µM (inactive). For the same compound, the GI50 (M19-MEL) was > 100 µM (inactive), the GI50 (MOLT-4) was > 100 µM (inactive) and the GI50 (Malme-3M) was > 100 µM (inactive). For the same compound, the GI50 (NCI-H226) was > 100 µM (inactive), the GI50 (NCI-H23) was > 100 µM (inactive) and the GI50 (NCI-H460) was > 100 µM (inactive). The GI50 (NCI-H522) was > 100 µM (inactive), the GI50 (OVCAR-3) was > 100 µM (inactive) and the GI50 (OVCAR-4) was > 100 µM (inactive). For the same compound, the GI50 (OVCAR-5) was > 100 µM (inactive), the GI50 (OVCAR-8) was > 100 µM (inactive) and the GI50 (RPMI-8226) was > 100 µM (inactive). The GI50 (RXF 393) was > 100 µM (inactive), the GI50 (RXF 631) was 88.3 µM (inactive) and the GI50 (SF-268) was > 100 µM (inactive). For the same compound, the GI50 (SF-295) was > 100 µM (inactive), the GI50 (SF-539) was > 100 µM (inactive) and the GI50 (SK-MEL-28) was > 100 µM (inactive). For the same compound, the GI50 (SK-MEL-2) was > 100 µM (inactive), the GI50 (SK-MEL-5) was > 100 µM (inactive) and the GI50 (SK-OV-3) was > 100 µM (inactive). The GI50 (SN12C) was > 100 µM (inactive), the GI50 (SNB-19) was > 100 µM (inactive) and the GI50 (SNB-75) was > 100 µM (inactive). The GI50 (SR) was > 100 µM (inactive), the GI50 (SW-620) was > 100 µM (inactive) and the GI50 (TK-10) was > 100 µM (inactive). The GI50 (U-251) was > 100 µM (inactive), the GI50 (UACC-62) was > 100 µM (inactive) and the GI50 (UO-31) was > 100 µM (inactive). For the same compound, the GI50 (XF498) was > 100 µM (inactive).

`COC(=O)CCC1(NS(=O)(=O)c2ccc(C)cc2)CCC(C(C)(C)C)CC1` (stereo not given) was tested, and the GI50 (786-0) was 14.4 µM (inactive), the GI50 (A498) was 13.6 µM (inactive) and the GI50 (A549) was 13.6 µM (inactive). The GI50 (ACHN) was > 10 µM (inactive), the GI50 (CAKI-1) was 13.6 µM (inactive) and the GI50 (CCRF-CEM) was 9.89 µM (inactive). The GI50 (COLO 205) was 13.4 µM (inactive), the GI50 (DLD-1) was 17 µM (inactive) and the GI50 (DMS-114) was 4.58 µM (inactive). The GI50 (DMS-273) was 12.9 µM (inactive), the GI50 (EKVX) was > 10 µM (inactive) and the GI50 (HCC 2998) was 14.6 µM (inactive). For the same compound, the GI50 (HCT-116) was 7.74 µM (inactive), the GI50 (HCT-15) was greater than 10 µM and the GI50 (HL-60) was 3 µM (inactive). The GI50 (HOP-62) was 17.3 µM (inactive), the GI50 (HOP-92) was 7.06 µM (inactive) and the GI50 (HT-29) was 13.8 µM (inactive). For the same compound, the GI50 (IGROV-1) was 14.6 µM (inactive), the GI50 (K562) was 4.91 µM (inactive) and the GI50 (KM12) was 13.1 µM (inactive). For the same compound, the GI50 (LOX IMVI) was 17.3 µM (inactive), the GI50 (LXFL 529) was 15 µM (inactive) and the GI50 (M14) was 12.7 µM (inactive). The GI50 (M19-MEL) was 11.4 µM (inactive), the GI50 (MOLT-4) was 6.15 µM (inactive) and the GI50 (Malme-3M) was 19.3 µM (inactive). The GI50 (NCI-H23) was 9.71 µM (inactive), the GI50 (NCI-H460) was 31.2 µM (inactive) and the GI50 (NCI-H522) was 5.16 µM (inactive). For the same compound, the GI50 (OVCAR-3) was 10.3 µM (inactive), the GI50 (OVCAR-4) was 11.2 µM (inactive) and the GI50 (OVCAR-5) was 16.3 µM (inactive). The GI50 (OVCAR-8) was 14.5 µM (inactive), the GI50 (RPMI-8226) was 4.08 µM (inactive) and the GI50 (RXF 393) was > 10 µM (inactive). For the same compound, the GI50 (RXF 631) was 15.9 µM (inactive), the GI50 (SF-268) was > 10 µM (inactive) and the GI50 (SF-295) was 11.8 µM (inactive). For the same compound, the GI50 (SF-539) was 13.3 µM (inactive), the GI50 (SK-MEL-28) was 11.6 µM (inactive) and the GI50 (SK-MEL-2) was 17.3 µM (inactive). For the same compound, the GI50 (SK-MEL-5) was 5.62 µM (inactive), the GI50 (SK-OV-3) was 40.6 µM (inactive) and the GI50 (SN12C) was 13.7 µM (inactive). For the same compound, the GI50 (SNB-19) was 12.2 µM (inactive), the GI50 (SNB-75) was 14.3 µM (inactive) and the GI50 (SNB-78) was 21.3 µM (inactive). For the same compound, the GI50 (SW-620) was 16.7 µM (inactive), the GI50 (TK-10) was 18 µM (inactive) and the GI50 (U-251) was 14.3 µM (inactive). For the same compound, the GI50 (UACC-257) was 6.95 µM (inactive), the GI50 (UACC-62) was 11.9 µM (inactive) and the GI50 (UO-31) was 3.3 µM (inactive). The GI50 (XF498) was 14.8 µM (inactive).

From ChEMBL document CHEMBL1201862, “PubChem BioAssay data set” (2004)
